# Experiments:
# Format in all cases: in vivo
# Setaria faberi (SETFA) [1] = assay: B1 Post-Emergence Efficacy - Test 1; details: 1000 g/ha, after 13 days, five point scale
# Protocol: (§1) Seeds of a variety of test species are sown in standard soil in pots:— Solanum nigrum (SOLNI), Amaranthus retoflexus (AMARE), Setaria faberi (SETFA), Alopecurus myosuroides (ALOMY), Echinochloa crus-galli (ECHCG), Ipomoea hederacea (IPOHE), Lolium perenne (LOLPE). After 8 days cultivation (post-emergence) under controlled conditions in a glasshouse (at 24/16° C., day/night; 14 hours light; 65% humidity), the plants are sprayed with an aqueous spray solution derived from the formulation of the technical active ingredient in acetone/water (50:50) solution containing 0.5% Tween 20 (polyoxyethylene sorbitan monolaurate, CAS RN 9005-64-5). Compounds are applied at 1000 g/ha. The test plants are then grown in a glasshouse under controlled conditions in a glasshouse (at 24/16° C., day/night; 14 hours light; 65% humidity) and watered twice daily. After 13 days, the test is evaluated for the percentage damage caused to the plant. The biological activities are assessed on a five point scale (5=80-100%; 4=60-79%; 3=40-59%; 2=20-39%; 1=0-19%). A blank value in the table is indicative that the compound was not tested on that species.
# Solanum nigrum (SOLNI) = assay: B1 Post-Emergence Efficacy - Test 1; details: 1000 g/ha, after 13 days, five point scale
# Protocol: as §1
# [2] = tested on: Echinochloa crus-galli (ECHCG); assay: B1 Post-Emergence Efficacy - Test 1; details: 1000 g/ha, after 13 days, five point scale
# Protocol: as §1
# [3] = tested on: Ipomoea hederacea (IPOHE); assay: B1 Post-Emergence Efficacy - Test 1; details: 1000 g/ha, after 13 days, five point scale
# Protocol: as §1
# [4] = tested on: Amaranthus retoflexus (AMARE); assay: B1 Post-Emergence Efficacy - Test 1; details: 1000 g/ha, after 13 days, five point scale
# Protocol: as §1
# Lolium perenne (LOLPE) = assay: B1 Post-Emergence Efficacy - Test 1; details: 1000 g/ha, after 13 days, five point scale
# Protocol: as §1
# Avena fatua (AVEFA) = assay: B2 Post-Emergence Efficacy - Test 2; details: 15 days after application, 0-100 scale
# Protocol: (§2) Seeds of a variety of test species (see Table B1) were sown in standard soil in pots. After cultivation for 12 days (post-emergence) under controlled conditions in a glasshouse (at 24/18° C. or 20/16° C., at day/night; 16 hours light; 65% humidity), the plants were sprayed with an aqueous spray solution derived from the formulation of the technical active ingredient dissolved in IF50 (see Table B2 for composition) and adjuvant (Genapol X080) was added to the spray solution at a rate of 0.2% v/v.
# (§3) After application, the test plants were grown in a glasshouse under controlled conditions (as above) and watered twice daily. Herbicidal activity was evaluated 15 days after application on a 0-100 scale. The results, where 0=no damage to test plant and 100=total kill of test plant are shown below in Tables 8 to 11.
# [5] = tested on: Brachiaria plantaginea (BRAPL); assay: B2 Post-Emergence Efficacy - Test 2; details: 15 days after application, 0=no damage, 100=total kill
# Protocol: as §2, §3
# Zea mays (ZEAMX) = assay: B2 Post-Emergence Efficacy - Test 2; details: 15 days after application; for Herbicidal activity ZEAMX: 0-100 scale; for Herbicidal activity on a 0-100 scale, ZEAMX: 0=no damage, 100=total kill
# Protocol: as §2, §3
# Bromus tectorum (BROTE) = assay: B2 Post-Emergence Efficacy - Test 2; details: 15 days after application, 0-100 scale
# Protocol: as §2, §3
# Setaria faberi (SETFA) [6] = assay: B2 Post-Emergence Efficacy - Test 2; details: 15 days after application, 0=no damage, 100=total kill
# Protocol: as §2, §3
# [7] = tested on: Chenopodium album (CHEAL); assay: B2 Post-Emergence Efficacy - Test 2; details: 15 days after application, 0-100 scale
# Protocol: as §2, §3
# Stellaria media (STEME) = assay: B2 Post-Emergence Efficacy - Test 2; details: 15 days after application, 0-100 scale
# Protocol: as §2, §3
# Eleisine indica (ELEIN) = assay: B2 Post-Emergence Efficacy - Test 2; details: 15 days after application, 0=no damage, 100=total kill
# Protocol: as §2, §3
# Kochia scoparia (KSHSC) = assay: B2 Post-Emergence Efficacy - Test 2; details: 15 days after application, 0-100 scale
# Protocol: as §2, §3
# Hordeum vulgare (HORVW) = assay: B2 Post-Emergence Efficacy - Test 2; details: 15 days after application, 0-100 scale
# Protocol: as §2, §3
# Brassica napus (BRSNN) = assay: B2 Post-Emergence Efficacy - Test 2; details: 15 days after application, 0-100 scale
# Protocol: as §2, §3
# [8] = tested on: Amaranthus retroflexus (AMARE); assay: B2 Post-Emergence Efficacy - Test 2; details: 15 days after application, 0-100 scale
# Protocol: as §2, §3
structure (smiles),measurement,setting,value
"Cc1nn(C)c(=O)c(-c2c(F)ccc(Cl)c2CCc2ccc(C(F)(F)F)nc2)c1O [Compound 1.042, 4-[3-chloro-6-fluoro-2-[2-[6-(trifluoromethyl)-3-pyridyl]ethyl]phenyl]-5-hydroxy-2,6-dimethyl-pyridazin-3-one]","percentage damage caused to the plant, SETFA",Setaria faberi (SETFA) [1],5 (5=80-100%)
same,"percentage damage caused to the plant, SOLNI",Solanum nigrum (SOLNI),5 (5=80-100%)
same,"percentage damage caused to the plant, ECHCG",[2],5 (5=80-100%)
same,"percentage damage caused to the plant, IPOHE",[3],5 (5=80-100%)
same,"percentage damage caused to the plant, AMARE",[4],5 (5=80-100%)
same,"percentage damage caused to the plant, LOLPE",Lolium perenne (LOLPE),5 (5=80-100%)
same,Herbicidal activity AVEFA,Avena fatua (AVEFA); 15 g/Ha,30
same,Herbicidal activity AVEFA,Avena fatua (AVEFA); 30 g/Ha,60
same,Herbicidal activity AVEFA,Avena fatua (AVEFA); 60 g/Ha,80
same,Herbicidal activity AVEFA,Avena fatua (AVEFA); 125 g/Ha,80
same,Herbicidal activity AVEFA,Avena fatua (AVEFA); 250 g/Ha,90
same,Herbicidal activity AVEFA,Avena fatua (AVEFA); 500 g/Ha,90
same,"Herbicidal activity on a 0-100 scale, BRAPL",[5]; 15 g/Ha,80
same,"Herbicidal activity on a 0-100 scale, BRAPL",[5]; 30 g/Ha,80
same,"Herbicidal activity on a 0-100 scale, BRAPL",[5]; 60 g/Ha,90
same,"Herbicidal activity on a 0-100 scale, BRAPL",[5]; 125 g/Ha,90
same,"Herbicidal activity on a 0-100 scale, BRAPL",[5]; 250 g/Ha,90
same,"Herbicidal activity on a 0-100 scale, BRAPL",[5]; 500 g/Ha,90
same,Herbicidal activity ZEAMX,Zea mays (ZEAMX); 15 g/Ha,0
same,"Herbicidal activity on a 0-100 scale, ZEAMX",Zea mays (ZEAMX); 15 g/Ha,0
same,Herbicidal activity ZEAMX,Zea mays (ZEAMX); 30 g/Ha,10
same,"Herbicidal activity on a 0-100 scale, ZEAMX",Zea mays (ZEAMX); 30 g/Ha,10
same,Herbicidal activity ZEAMX,Zea mays (ZEAMX); 60 g/Ha,20
same,"Herbicidal activity on a 0-100 scale, ZEAMX",Zea mays (ZEAMX); 60 g/Ha,20
same,Herbicidal activity ZEAMX,Zea mays (ZEAMX); 125 g/Ha,60
same,"Herbicidal activity on a 0-100 scale, ZEAMX",Zea mays (ZEAMX); 125 g/Ha,60
same,Herbicidal activity ZEAMX,Zea mays (ZEAMX); 250 g/Ha,70
same,"Herbicidal activity on a 0-100 scale, ZEAMX",Zea mays (ZEAMX); 250 g/Ha,70
same,Herbicidal activity ZEAMX,Zea mays (ZEAMX); 500 g/Ha,90
same,"Herbicidal activity on a 0-100 scale, ZEAMX",Zea mays (ZEAMX); 500 g/Ha,90
same,Herbicidal activity BROTE,Bromus tectorum (BROTE); 15 g/Ha,20
same,Herbicidal activity BROTE,Bromus tectorum (BROTE); 30 g/Ha,30
same,Herbicidal activity BROTE,Bromus tectorum (BROTE); 60 g/Ha,70
same,Herbicidal activity BROTE,Bromus tectorum (BROTE); 125 g/Ha,80
same,Herbicidal activity BROTE,Bromus tectorum (BROTE); 250 g/Ha,80
same,Herbicidal activity BROTE,Bromus tectorum (BROTE); 500 g/Ha,90
same,"Herbicidal activity on a 0-100 scale, SETFA",Setaria faberi (SETFA) [6]; 15 g/Ha,40
same,"Herbicidal activity on a 0-100 scale, SETFA",Setaria faberi (SETFA) [6]; 30 g/Ha,80
same,"Herbicidal activity on a 0-100 scale, SETFA",Setaria faberi (SETFA) [6]; 60 g/Ha,90
same,"Herbicidal activity on a 0-100 scale, SETFA",Setaria faberi (SETFA) [6]; 125 g/Ha,90
same,"Herbicidal activity on a 0-100 scale, SETFA",Setaria faberi (SETFA) [6]; 250 g/Ha,90
same,"Herbicidal activity on a 0-100 scale, SETFA",Setaria faberi (SETFA) [6]; 500 g/Ha,100
same,Herbicidal activity CHEAL,[7]; 30 g/Ha,90
same,Herbicidal activity CHEAL,[7]; 60 g/Ha,90
same,Herbicidal activity CHEAL,[7]; 125 g/Ha,90
same,Herbicidal activity CHEAL,[7]; 250 g/Ha,100
same,Herbicidal activity CHEAL,[7]; 500 g/Ha,100
same,Herbicidal activity STEME,Stellaria media (STEME); 15 g/Ha,100
same,Herbicidal activity STEME,Stellaria media (STEME); 30 g/Ha,100
same,Herbicidal activity STEME,Stellaria media (STEME); 60 g/Ha,90
same,Herbicidal activity STEME,Stellaria media (STEME); 125 g/Ha,100
same,Herbicidal activity STEME,Stellaria media (STEME); 250 g/Ha,100
same,Herbicidal activity STEME,Stellaria media (STEME); 500 g/Ha,100
same,"Herbicidal activity on a 0-100 scale, ELEIN",Eleisine indica (ELEIN); 15 g/Ha,0
same,"Herbicidal activity on a 0-100 scale, ELEIN",Eleisine indica (ELEIN); 30 g/Ha,70
same,"Herbicidal activity on a 0-100 scale, ELEIN",Eleisine indica (ELEIN); 60 g/Ha,70
same,"Herbicidal activity on a 0-100 scale, ELEIN",Eleisine indica (ELEIN); 125 g/Ha,80
same,"Herbicidal activity on a 0-100 scale, ELEIN",Eleisine indica (ELEIN); 250 g/Ha,80
same,"Herbicidal activity on a 0-100 scale, ELEIN",Eleisine indica (ELEIN); 500 g/Ha,90
same,Herbicidal activity KCHSC,Kochia scoparia (KSHSC); 15 g/Ha,0
same,Herbicidal activity KCHSC,Kochia scoparia (KSHSC); 30 g/Ha,10
same,Herbicidal activity KCHSC,Kochia scoparia (KSHSC); 60 g/Ha,10
same,Herbicidal activity KCHSC,Kochia scoparia (KSHSC); 125 g/Ha,20
same,Herbicidal activity KCHSC,Kochia scoparia (KSHSC); 250 g/Ha,30
same,Herbicidal activity KCHSC,Kochia scoparia (KSHSC); 500 g/Ha,60
same,Herbicidal activity HORVW,Hordeum vulgare (HORVW); 15 g/Ha,10
same,Herbicidal activity HORVW,Hordeum vulgare (HORVW); 30 g/Ha,20
same,Herbicidal activity HORVW,Hordeum vulgare (HORVW); 60 g/Ha,20
same,Herbicidal activity HORVW,Hordeum vulgare (HORVW); 125 g/Ha,40
same,Herbicidal activity HORVW,Hordeum vulgare (HORVW); 250 g/Ha,80
same,Herbicidal activity HORVW,Hordeum vulgare (HORVW); 500 g/Ha,80
same,Herbicidal activity BRSNN,Brassica napus (BRSNN); 15 g/Ha,90
same,Herbicidal activity BRSNN,Brassica napus (BRSNN); 30 g/Ha,90
same,Herbicidal activity BRSNN,Brassica napus (BRSNN); 60 g/Ha,90
same,Herbicidal activity BRSNN,Brassica napus (BRSNN); 125 g/Ha,90
same,Herbicidal activity BRSNN,Brassica napus (BRSNN); 250 g/Ha,90
same,Herbicidal activity BRSNN,Brassica napus (BRSNN); 500 g/Ha,90
same,Herbicidal activity AMARE,[8]; 30 g/Ha,100
same,Herbicidal activity AMARE,[8]; 60 g/Ha,100
same,Herbicidal activity AMARE,[8]; 125 g/Ha,100
same,Herbicidal activity AMARE,[8]; 250 g/Ha,100
same,Herbicidal activity AMARE,[8]; 500 g/Ha,100

# Source: patent US20230301300A1, “HERBICIDAL COMPOSITIONS” (SYNGENTA CROP PROTECTION AG, priority 2020, published 2023)
